Results reported in patent US9593110B2, “Neprilysin inhibitors” (Theravence Biopharma R&D IP, LLC, priority 2014, dated 2017).

Tests used:
human NEP = human NEP (Homo sapiens (Human), UniProt P08473); test: In vitro enzyme inhibition assay at human NEP; conditions: recombinant human NEP, fluorogenic peptide substrate, 37° C.; for Ki: pKi
Experimental: The inhibitory activities of compounds at human and rat neprilysin (EC 3.4.24.11; NEP) and human angiotensin converting enzyme (ACE) were determined using in vitro assays as described below.
The assays were performed in 384-well white opaque plates at 37° C. using the fluorogenic peptide substrates at a concentration of 10 μM in Assay Buffer (NEP: 50 mM HEPES, pH 7.5, 100 mM NaCl, 0.01% polyethylene glycol sorbitan monolaurate (Tween-20), 10 μM ZnSO4; ACE: 50 mM HEPES, pH 7.5, 100 mM NaCl, 0.01% Tween-20, 1 μM ZnSO4).
Test compounds were assayed over the range of concentrations from 10 μM to 20 pM. Test compounds were added to the enzymes and incubated for 30 minute at 37° C. prior to initiating the reaction by the addition of substrate.
Plates were read on a fluorometer with excitation and emission wavelengths set to 320 nm and 405 nm, respectively Inhibition constants were obtained by nonlinear regression of the data using the equation (GraphPad Software, Inc., San Diego, Calif.): v=v0/[1+(I/K′)] where v is the reaction rate, v0 is the uninhibited reaction rate, I is the inhibitor concentration and K′ is the apparent inhibition constant.

[1] = Rat PO cassette assay (oral bioavailability); type: in vivo, Sprague-Dawley rats; conditions: male, Sprague-Dawley, plasma, single oral gavage vs intravenous dose, 0.5 mg/kg
Source text: Oral bioavailability, or % F, is a measure of the percentage of a drug in an oral dose that actually reaches the systemic circulation. Compound losses can occur due to incomplete formulation dissolution, incomplete absorption due to compound insolubility or instability along the GI, or metabolism in the gut or across the gut wall. The fraction of the dose which reaches the hepatic portal vein must also then pass through the liver before reaching the systemic circulation. Compound metabolism, or “first-pass extraction,” can occur during this initial passage through the liver, and this is an additional potential source of compound loss. Oral bioavailability is calculated as the dose-normalized ratio of drug exposure after an oral dose to that after an intravenous dose, wherein the entire dose is delivered directly to the systemic circulation.
Each cassette study begins with 10 mM DMSO stock solutions of up to 5 different compounds. Typically, compounds are selected such no two compounds dosed in the same cassette have a molecular weight within 5 Da of each other. This simplifies subsequent bioanalysis. Appropriate volumes of each DMSO stock are added into a volume of vehicle (5% sodium bicarbonate, 5% dextrose in H2O) such that the final concentration of each compound is 0.25 mg/mL. Intravenous dosing solutions are sterile-filtered (0.2 μm) prior to dosing.
Pre-cannulated male Sprague-Dawley rats (3 per cassette per route) between 8 and 10 weeks of age were obtained from Harlan Laboratories (Indianapolis, Ind.). Rats received either a single oral gavage or a single intravenous (via lateral tail vein) dose (2 mL/kg) of the dosing solution. The final dose was 0.5 mg/kg. Serial blood samples were harvested via jugular vein cannula at 3 minutes, 15 minutes, 30 minutes, 1 hours, 2 hours, 4 hours, 6 hours, and 24 hours post-dose. Sampling was performed either manually or using automated blood samplers. Samples were collected into microtainer tubes containing EDTA as the anticoagulant and are processed to plasma by refrigerated centrifugation.
Plasma samples were extracted with 3 volumes of MeCN containing a suitable internal standard. Extracts were reconstituted into 3 volumes of water containing 1% formic acid, and analyzed via HPLC-coupled MS/MS. Plasma concentration-time data were analyzed using the Phoenix software (Pharsight Corp., St. Louis, Mo.) to calculate pharmacokinetic parameters.
Compounds of the invention of particular interest were those having a % F>10%, when tested in this assay.

Sequence of human NEP (P08473 52-750): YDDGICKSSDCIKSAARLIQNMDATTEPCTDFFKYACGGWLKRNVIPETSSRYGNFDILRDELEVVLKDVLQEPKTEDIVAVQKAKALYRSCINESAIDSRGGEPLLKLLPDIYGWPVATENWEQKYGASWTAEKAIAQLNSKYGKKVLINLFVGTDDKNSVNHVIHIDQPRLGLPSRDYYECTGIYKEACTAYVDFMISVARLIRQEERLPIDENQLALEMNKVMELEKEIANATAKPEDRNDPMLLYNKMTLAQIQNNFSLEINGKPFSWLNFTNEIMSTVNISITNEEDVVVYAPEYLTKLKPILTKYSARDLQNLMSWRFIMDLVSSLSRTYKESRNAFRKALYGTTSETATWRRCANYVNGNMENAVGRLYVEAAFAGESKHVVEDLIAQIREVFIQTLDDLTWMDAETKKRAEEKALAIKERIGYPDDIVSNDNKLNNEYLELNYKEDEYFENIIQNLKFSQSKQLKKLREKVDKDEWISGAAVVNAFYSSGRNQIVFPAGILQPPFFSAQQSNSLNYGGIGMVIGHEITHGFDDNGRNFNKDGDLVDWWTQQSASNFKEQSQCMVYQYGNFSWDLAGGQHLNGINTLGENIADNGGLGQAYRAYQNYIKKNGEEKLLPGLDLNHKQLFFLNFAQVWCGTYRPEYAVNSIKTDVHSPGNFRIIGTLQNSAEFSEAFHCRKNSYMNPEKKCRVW

SMILES	Ki (human NEP) [nM]	bioavailability [1] [%]	pKi (human NEP)
CCCCCCOC(=O)[C@H](N)C[C@@H](Cc1ccc(-c2cc(Cl)ccc2F)cc1)NC(=O)c1cnn[nH]1 [Example 14b, (2R,4R)-2-Amino-5-(5′-chloro-2′-fluorobiphenyl-4-yl)-4-[(3H-[1,2,3]triazole-4-carbonyl)amino]pentanoic Acid Hexyl Ester]	31.6 to 100	> 10	
CCc1cc(C(=O)N[C@H](Cc2ccc(-c3cc(Cl)ccc3F)cc2)C[C@@H](COC)C(=O)O)on1 [Example 1, (2S,4S)-5-(5′-Chloro-2′-fluorobiphenyl-4-yl)-4-[(3-ethylisoxazole-5-carbonyl)amino]-2-methoxymethylpentanoic Acid]	≤ 1	> 10	
COC[C@H](C[C@@H](Cc1ccc(-c2cc(Cl)ccc2F)cc1)NC(=O)c1cc(OC)no1)C(=O)O [Example 2-6, (2S,4S)-5-(5′-Chloro-2′-fluorobiphenyl-4-yl)-4-[(3-methoxyisoxazole-5-carbonyl)-amino]-2-methoxymethylpentanoic acid]		> 10	≧9.0
CCOC[C@H](C[C@@H](Cc1ccc(-c2cc(Cl)ccc2F)cc1)NC(=O)c1cc(O)no1)C(=O)O [Example 7-4, (2S,4S)-5-(5′-Chloro-2′-fluoro-biphenyl-4-yl)-2-ethoxymethyl-4-[(3-hydroxy-isoxazole-5-carbonyl)amino]pentanoic acid]		> 10	≧9.0
Cc1ccccc1-c1n[nH]c(C(=O)N[C@H](Cc2ccc(-c3cc(Cl)ccc3F)cc2)C[C@@H](N)C(=O)O)c1F [Example 16-23, (2R,4R)-2-Amino-5-(5′-chloro-2′-fluorobiphenyl-4-yl)-4-[(4-fluoro-5-o-tolyl-2H-pyrazole-3-carbonyl)amino]pentanoic acid]		> 10	≧9.0
CCOc1cc(C(=O)N[C@H](Cc2ccc(-c3cc(Cl)ccc3F)cc2)C[C@@H](COC)C(=O)O)n[nH]1 [Example 2-16, (2S,4S)-5-(5′-Chloro-2′-fluorobiphenyl-4-yl)-4-[(5-ethoxy-1H-pyrazole-3-carbonyl)amino]-2-methoxymethylpentanoic acid]		> 10	≧9.0
CCOC[C@H](C[C@@H](Cc1ccc(-c2cc(Cl)ccc2F)cc1)NC(=O)c1[nH]nc(C2CC2)c1F)C(=O)O [Example 7-2, (2S,4S)-5-(5′-Chloro-2′-fluorobiphenyl-4-yl)-4-[(5-cyclopropyl-4-fluoro-2H-pyrazole-3-carbonyl)amino]-2-ethoxymethylpentanoic acid]		> 10	≧9.0
COC[C@H](C[C@@H](Cc1ccc(-c2cc(Cl)ccc2F)cc1)NC(=O)c1n[nH]c(C(F)(F)F)n1)C(=O)O [Example 2-2, (2S,4S)-5-(5′-Chloro-2′-fluorobiphenyl-4-yl)-2-methoxymethyl-4-[(5-trifluoromethyl-1H-[1,2,4]triazole-3-carbonyl)amino]pentanoic acid]		> 10	≧9.0
COC(=O)N[C@H](C[C@@H](Cc1ccc(-c2cc(Cl)ccc2F)cc1)NC(=O)c1ccc(Cl)cn1)C(=O)O [Example 30-12, (2R,4R)-5-(5′-Chloro-2′-fluorobiphenyl-4-yl)-4-[(5-chloro-pyridine-2-carbonyl)-amino]-2-methoxycarbonylaminopentanoic acid]		> 10	≧9.0
COC[C@H](C[C@@H](Cc1ccc(-c2ccccc2)cc1)NC(=O)c1c[nH]nn1)C(=O)O [Example 5, (2S,4S)-5-Biphenyl-4-yl-2-methoxymethyl-4-[(1H-[1,2,3]-triazole-4-carbonyl)amino]pentanoic Acid]		> 10	≧9.0
COC[C@H](C[C@@H](Cc1ccc(-c2cc(Cl)ccc2F)cc1)NC(=O)c1coc(C2CC2)n1)C(=O)O [Example 2-9, (2S,4S)-5-(5′-Chloro-2′-fluorobiphenyl-4-yl)-4-[(2-cyclopropyloxazole-4-carbonyl)amino]-2-methoxymethylpentanoic acid]		> 10	≧9.0
CCc1nc(C(=O)N[C@H](Cc2ccc(-c3cc(Cl)ccc3F)cc2)C[C@@H](NC(=O)OC)C(=O)O)co1 [Example 30-6, (2R,4R)-5-(5′-Chloro-2′-fluorobiphenyl-4-yl)-4-[(2-ethyl-oxazole-4-carbonyl)amino]-2-methoxycarbonylaminopentanoic acid]		> 10	≧9.0
